Several values for one entry are separate records, joined by “and”; a condition that tells them apart may be missing. Equal values may be shown once.
What was measured:
creatininase (Toyobo) = assay: Toyobo Creatininase Enzyme Absorbance with BSA and Proclin 300; assay type: biochemical
Text: Absorbance measurements of the creatininase enzyme(s) were taken via spectrophotometer for each aqueous solution (represented as columns 1-5 in Tables 5-8—column 6 is a blank), the absorbance being directly proportional to the enzyme activity being measured-which for Tables 5-8 is creatininase enzyme activity. Accordingly, the higher the absorbance measurement, the higher the enzyme activity of creatininase. […] In addition, the mean values, standard deviations, and coefficients of variation are all presented for the enzyme activity/absorbance of each aqueous solution. All measurements were taken at 37° C.

[1] = test system: creatininase (BBI Solutions); assay: BBI Solutions Creatininase Enzyme Absorbance with BSA and MIT; assay type: biochemical
Experimental: Table 5-8 depict aqueous solutions comprising varying concentrations of BSA (at concentrations of 0 mg/mL, 5 mg/mL, 25 mg/mL, and 50 mg/mL), varying concentrations of MIT (at concentrations of 50 parts per million and 100 parts per million) or Proclin™ 300 (at concentrations of 0.7% and 1.4%) biocide over a particular time period (measurements were taken at days 0, 4, and 14 after exposure of the enzyme(s) to the particular aqueous solutions) and the associated enzyme absorbance measurements for creatininase (commercially offered for sale by BBI Solutions and Toyobo). Absorbance measurements of the creatininase enzyme(s) were taken via spectrophotometer for each aqueous solution (represented as columns 1-5 in Tables 5-8—column 6 is a blank), the absorbance being directly proportional to the enzyme activity being measured-which for Tables 5-8 is creatininase enzyme activity. Accordingly, the higher the absorbance measurement, the higher the enzyme activity of creatininase. Columns 7-11 represent five replicate readings in which the solution only contains BSA (i.e., there is no biocide(s) present in the solution). In addition, the mean values, standard deviations, and coefficients of variation are all presented for the enzyme activity/absorbance of each aqueous solution. All measurements were taken at 37° C.
As depicted in Table 5, creatininase (commercially offered for sale by BBI Solutions) enzyme activity is measured against various concentrations of MIT (biocide) and BSA (scavenger protein) over a period of 14 days (with absorbance measurement taken at 0, 4, and 14 days) for five different aqueous solutions (represented as columns 1-5—column 6 is a blank).

[2] = Day 0, BSA 5 mg/mL only, no Proclin 300, listed as of 0.7% Proclin 300
[3] = Day 0, BSA 5 mg/mL only, no Proclin 300, listed as of 1.4% Proclin 300
[4] = Day 0, BSA 25 mg/mL only, no Proclin 300, listed as of 0.7% Proclin 300
[5] = Day 0, BSA 25 mg/mL only, no Proclin 300, listed as of 1.4% Proclin 300
[6] = Day 0, BSA 50 mg/mL only, no Proclin 300, listed as of 0.7% Proclin 300
[7] = Day 0, BSA 50 mg/mL only, no Proclin 300, listed as of 1.4% Proclin 300
[8] = Day 0, 5 mg/mL BSA, no MIT (row of 50 ppm MIT)
[9] = Day 0, 5 mg/mL BSA, no MIT (row of 100 ppm MIT)
[10] = Day 0, 25 mg/mL BSA, no MIT (row of 50 ppm MIT)
[11] = Day 0, 25 mg/mL BSA, no MIT (row of 100 ppm MIT)
[12] = Day 0, 50 mg/mL BSA, no MIT (row of 50 ppm MIT)
[13] = Day 0, 50 mg/mL BSA, no MIT (row of 100 ppm MIT)
[14] = Day 0, 50 ppm MIT, 25 mg/mL BSA
[15] = Day 0, 50 ppm MIT, 50 mg/mL BSA
[16] = Day 4, 5 mg/mL BSA, no MIT (row of 50 ppm MIT)
[17] = Day 4, 5 mg/mL BSA, no MIT (row of 100 ppm MIT)
[18] = Day 4, 25 mg/mL BSA, no MIT (row of 50 ppm MIT)
[19] = Day 4, 25 mg/mL BSA, no MIT (row of 100 ppm MIT)
[20] = Day 4, 50 mg/mL BSA, no MIT (row of 50 ppm MIT)
[21] = Day 4, 50 mg/mL BSA, no MIT (row of 100 ppm MIT)
[22] = Day 14, 5 mg/mL BSA, no MIT (row of 50 ppm MIT)
[23] = Day 14, 5 mg/mL BSA, no MIT (row of 100 ppm MIT)
[24] = Day 14, 25 mg/mL BSA, no MIT (row of 50 ppm MIT)
[25] = Day 14, 25 mg/mL BSA, no MIT (row of 100 ppm MIT)
[26] = Day 14, 50 mg/mL BSA, no MIT (row of 50 ppm MIT)
[27] = Day 14, 50 mg/mL BSA, no MIT (row of 100 ppm MIT)

- Absorbance, solutions 7-11 (creatininase (Toyobo); [2]): 0.749
- MEAN absorbance, solutions 7-11 (creatininase (Toyobo); [2]): 0.61
- Absorbance, solutions 7-11 (creatininase (Toyobo); [3]): 0.569 and 0.573 and 0.57 and 0.582
- MEAN absorbance, solutions 7-11 (creatininase (Toyobo); [3]): 0.47
- Absorbance, solutions 7-11 (creatininase (Toyobo); [4]): 0.529
- MEAN absorbance, solutions 7-11 (creatininase (Toyobo); [4]): 0.40
- Absorbance, solutions 7-11 (creatininase (Toyobo); [5]): 0.508 and 0.507 and 0.518 and 0.514
- MEAN absorbance, solutions 7-11 (creatininase (Toyobo); [5]): 0.41
- Absorbance, solutions 7-11 (creatininase (Toyobo); [6]): 0.973
- MEAN absorbance, solutions 7-11 (creatininase (Toyobo); [6]): 1.39
- Absorbance, solutions 7-11 (creatininase (Toyobo); [7]): 0.488 and 0.464 and 0.506
- MEAN absorbance, solutions 7-11 (creatininase (Toyobo); [7]): 0.39
- MEAN absorbance, solutions 7-11 (creatininase (Toyobo); Day 4, BSA 5 mg/mL only, no Proclin 300, listed as of 0.7% Proclin 300): 0.87
- MEAN absorbance, solutions 7-11 (creatininase (Toyobo); Day 4, BSA 5 mg/mL only, no Proclin 300, listed as of 1.4% Proclin 300): 0.78
- MEAN absorbance, solutions 7-11 (creatininase (Toyobo); Day 4, BSA 25 mg/mL only, no Proclin 300, listed as of 0.7% Proclin 300): 0.68
- MEAN absorbance, solutions 7-11 (creatininase (Toyobo); Day 4, BSA 25 mg/mL only, no Proclin 300, listed as of 1.4% Proclin 300): 0.64
- MEAN absorbance, solutions 7-11 (creatininase (Toyobo); Day 4, BSA 50 mg/mL only, no Proclin 300, listed as of 0.7% Proclin 300): 0.56
- MEAN absorbance, solutions 7-11 (creatininase (Toyobo); Day 4, BSA 50 mg/mL only, no Proclin 300, listed as of 1.4% Proclin 300): 0.54
- MEAN absorbance, solutions 7-11 (creatininase (Toyobo); Day 14, BSA 5 mg/mL only, no Proclin 300, listed as of 0.7% Proclin 300): 0.92
- MEAN absorbance, solutions 7-11 (creatininase (Toyobo); Day 14, BSA 5 mg/mL only, no Proclin 300, listed as of 1.4% Proclin 300): 0.90
- MEAN absorbance, solutions 7-11 (creatininase (Toyobo); Day 14, BSA 25 mg/mL only, no Proclin 300, listed as of 0.7% Proclin 300): 0.71
- MEAN absorbance, solutions 7-11 (creatininase (Toyobo); Day 14, BSA 25 mg/mL only, no Proclin 300, listed as of 1.4% Proclin 300): 0.71
- MEAN absorbance, solutions 7-11 (creatininase (Toyobo); Day 14, BSA 50 mg/mL only, no Proclin 300, listed as of 0.7% Proclin 300): 0.58
- MEAN absorbance, solutions 7-11 (creatininase (Toyobo); Day 14, BSA 50 mg/mL only, no Proclin 300, listed as of 1.4% Proclin 300): 0.57
- absorbance of the creatininase enzyme compared to samples containing 0 mg/mL of BSA (creatininase (Toyobo); day 4, Proclin 300 0.7%, 5, 25 and 50 mg/mL BSA): increased (albeit a mild increase)
- creatininase absorbance, solutions 7-11 (creatininase (Toyobo); days 4 and 14, only BSA, no Proclin 300): increased (or at least maintained)
- Creatininase Enzyme Absorbance, columns 7-11 [1, 8]: 0.717 and 0.707 and 0.75 and 0.728
- MEAN (columns 7-11) [1, 8]: 0.51
- MEAN (columns 7-11) [1, 9]: 0.56
- MEAN (columns 7-11) [1, 10]: 0.52
- MEAN (columns 7-11) [1, 11]: 0.50
- MEAN (columns 7-11) [1, 12]: 0.54
- MEAN (columns 7-11) [1, 13]: 0.48
- % Bias ([1]; Day 0, 50 ppm MIT vs no MIT, 5 mg/mL BSA): 6.0%
- % Bias ([1]; Day 0, 50 ppm MIT vs no MIT, 25 mg/mL BSA): 4.8%
- % Bias ([1]; Day 0, 50 ppm MIT vs no MIT, 50 mg/mL BSA): 3.6%
- MEAN ([1]; Day 0, 50 ppm MIT, 5 mg/mL BSA): 0.54
- Creatininase Enzyme Absorbance [1, 14]: 0.751 and 0.713 and 0.818 and 0.733
- MEAN [1, 14]: 0.54
- Creatininase Enzyme Absorbance [1, 15]: 0.773
- MEAN [1, 15]: 0.56
- % Bias ([1]; Day 0, 100 ppm MIT vs no MIT, 5 mg/mL BSA): 6.8%
- % Bias ([1]; Day 0, 100 ppm MIT vs no MIT, 25 mg/mL BSA): 8.0%
- % Bias ([1]; Day 0, 100 ppm MIT vs no MIT, 50 mg/mL BSA): 3.7%
- MEAN ([1]; Day 0, 100 ppm MIT, 5 mg/mL BSA): 0.59
- MEAN ([1]; Day 0, 100 ppm MIT, 25 mg/mL BSA): 0.54
- MEAN ([1]; Day 0, 100 ppm MIT, 50 mg/mL BSA): 0.49
- MEAN (columns 7-11) [1, 16]: 0.71
- MEAN (columns 7-11) [1, 17]: 0.69
- Creatininase Enzyme Absorbance, columns 7-11 [1, 18]: 0.821 and 0.794 and 0.77 and 0.793
- MEAN (columns 7-11) [1, 18]: 0.59
- MEAN (columns 7-11) [1, 19]: 0.58
- MEAN (columns 7-11) [1, 20]: 0.40
- MEAN (columns 7-11) [1, 21]: 0.43
- % Bias ([1]; Day 4, 50 ppm MIT vs no MIT, 5 mg/mL BSA): 3.8%
- % Bias ([1]; Day 4, 50 ppm MIT vs no MIT, 25 mg/mL BSA): 4.5%
- % Bias ([1]; Day 4, 50 ppm MIT vs no MIT, 50 mg/mL BSA): 14.7%
- MEAN ([1]; Day 4, 50 ppm MIT, 5 mg/mL BSA): 0.73
- MEAN ([1]; Day 4, 50 ppm MIT, 25 mg/mL BSA): 0.61
- MEAN ([1]; Day 4, 50 ppm MIT, 50 mg/mL BSA): 0.46
- % Bias ([1]; Day 4, 100 ppm MIT vs no MIT, 5 mg/mL BSA): 2.3%
- % Bias ([1]; Day 4, 100 ppm MIT vs no MIT, 25 mg/mL BSA): 2.7%
- % Bias ([1]; Day 4, 100 ppm MIT vs no MIT, 50 mg/mL BSA): 14.0%
- MEAN ([1]; Day 4, 100 ppm MIT, 5 mg/mL BSA): 0.71
- MEAN ([1]; Day 4, 100 ppm MIT, 25 mg/mL BSA): 0.60
- MEAN ([1]; Day 4, 100 ppm MIT, 50 mg/mL BSA): 0.49
- MEAN (columns 7-11) [1, 22]: 0.80
- Creatininase Enzyme Absorbance, columns 7-11 [1, 23]: 1.061 and 1.054 and 1.018 and 1.051
- MEAN (columns 7-11) [1, 23]: 0.79
- MEAN (columns 7-11) [1, 24]: 0.65
- MEAN (columns 7-11) [1, 25]: 0.64
- MEAN (columns 7-11) [1, 26]: 0.47
- Creatininase Enzyme Absorbance, columns 7-11 [1, 27]: 0.74 and 0.737 and 0.713 and 0.724
- MEAN (columns 7-11) [1, 27]: 0.47
- % Bias ([1]; Day 14, 50 ppm MIT vs no MIT, 5 mg/mL BSA): 1.8%
- % Bias ([1]; Day 14, 50 ppm MIT vs no MIT, 25 mg/mL BSA): −0.5%
- % Bias ([1]; Day 14, 50 ppm MIT vs no MIT, 50 mg/mL BSA): −2.4%
- MEAN ([1]; Day 14, 50 ppm MIT, 5 mg/mL BSA): 0.81
- MEAN ([1]; Day 14, 50 ppm MIT, 25 mg/mL BSA): 0.65
- MEAN ([1]; Day 14, 50 ppm MIT, 50 mg/mL BSA): 0.46
- % Bias ([1]; Day 14, 100 ppm MIT vs no MIT, 5 mg/mL BSA): 0.3%
- % Bias ([1]; Day 14, 100 ppm MIT vs no MIT, 25 mg/mL BSA): −1.0%
- % Bias ([1]; Day 14, 100 ppm MIT vs no MIT, 50 mg/mL BSA): 0.7%
- MEAN ([1]; Day 14, 100 ppm MIT, 5 mg/mL BSA): 0.79
- MEAN ([1]; Day 14, 100 ppm MIT, 25 mg/mL BSA): 0.64
- MEAN ([1]; Day 14, 100 ppm MIT, 50 mg/mL BSA): 0.47
- absorbance of the creatininase enzyme compared to samples containing 0 mg/mL of BSA ([1]; days 4 and 14, 5, 25 and 50 mg/mL BSA, with MIT): increased absorbance
- creatininase absorbance, solutions 7-11 ([1]; days 4 and 14, only BSA, no MIT): increased (or at least maintained)
- BSA concentration at which the creatininase absorbance measurement is highest ([1]; days 4 and 14, with MIT): 5 mg/mL
Substance: bovine serum albumin [BSA]
- Creatininase Enzyme Absorbance, columns 7-11 [1, 9]: 0.767 and 0.759 and 0.781 and 0.761 and 0.773
- Creatininase Enzyme Absorbance, columns 7-11 [1, 10]: 0.736 and 0.712 and 0.709 and 0.752 and 0.746
- Creatininase Enzyme Absorbance, columns 7-11 [1, 11]: 0.688 and 0.694 and 0.72 and 0.733 and 0.705
- Creatininase Enzyme Absorbance, columns 7-11 [1, 12]: 0.759 and 0.723 and 0.742 and 0.773 and 0.777
- Creatininase Enzyme Absorbance, columns 7-11 [1, 13]: 0.661 and 0.68 and 0.708 and 0.702 and 0.686
- Creatininase Enzyme Absorbance ([1]; Day 0, 50 ppm MIT, 5 mg/mL BSA): 0.774 and 0.737 and 0.726 and 0.733 and 0.74
- Creatininase Enzyme Absorbance, columns 7-11 [1, 16]: 0.95 and 0.906 and 0.917 and 0.926 and 0.911
- Creatininase Enzyme Absorbance, columns 7-11 [1, 17]: 0.927 and 0.89 and 0.906 and 0.925 and 0.892
- Creatininase Enzyme Absorbance, columns 7-11 [1, 19]: 0.793 and 0.779 and 0.783 and 0.8 and 0.814
- Creatininase Enzyme Absorbance, columns 7-11 [1, 20]: 0.621 and 0.592 and 0.597 and 0.625 and 0.622
- Creatininase Enzyme Absorbance, columns 7-11 [1, 21]: 0.647 and 0.629 and 0.631 and 0.657 and 0.637
- Creatininase Enzyme Absorbance, columns 7-11 [1, 22]: 1.062 and 1.055 and 1.027 and 1.067 and 1.069
- Creatininase Enzyme Absorbance, columns 7-11 [1, 24]: 0.931 and 0.918 and 0.882 and 0.905 and 0.92
- Creatininase Enzyme Absorbance, columns 7-11 [1, 25]: 0.91 and 0.907 and 0.879 and 0.898 and 0.905
- Creatininase Enzyme Absorbance, columns 7-11 [1, 26]: 0.745 and 0.73 and 0.711 and 0.727 and 0.732

From patent publication US11339419B2, “Scavenger protein(s) for improved preservation of analyte detection sensor(s) and method(s) of use thereof” (Siemens Healthcare Diagnostics Inc., priority 2017, dated 2022)
